Measured values as given in ChEMBL document CHEMBL4665908, “Estrogen Receptor Degrading PROTACS for the Treatment of Breast Cancer” (ACS Med Chem Lett, 2020).
pIC50: −log10 of the molar value.

Columns and labels:
[1] = target: Protein cereblon/Estrogen receptor (Homo sapiens, UniProt P03372+Q96SW2); assay: Protac activity at CRBN/ERalpha in human MCF7 cells assessed as induction of ERalpha protein degradation incubated for 8 to 22 hrs by immunofluorescence assay; type: cell-based
Estrogen receptor = target: T1, Estrogen receptor (Homo sapiens, UniProt P03372); assay: Displacement of fluorescent ligand from human recombinant GST-tagged ER-alpha ligand binding domain (307 to 554 residues) incubated for 15 mins by TR-FRET based competitive assay
T1 sequence (P03372 whole entry): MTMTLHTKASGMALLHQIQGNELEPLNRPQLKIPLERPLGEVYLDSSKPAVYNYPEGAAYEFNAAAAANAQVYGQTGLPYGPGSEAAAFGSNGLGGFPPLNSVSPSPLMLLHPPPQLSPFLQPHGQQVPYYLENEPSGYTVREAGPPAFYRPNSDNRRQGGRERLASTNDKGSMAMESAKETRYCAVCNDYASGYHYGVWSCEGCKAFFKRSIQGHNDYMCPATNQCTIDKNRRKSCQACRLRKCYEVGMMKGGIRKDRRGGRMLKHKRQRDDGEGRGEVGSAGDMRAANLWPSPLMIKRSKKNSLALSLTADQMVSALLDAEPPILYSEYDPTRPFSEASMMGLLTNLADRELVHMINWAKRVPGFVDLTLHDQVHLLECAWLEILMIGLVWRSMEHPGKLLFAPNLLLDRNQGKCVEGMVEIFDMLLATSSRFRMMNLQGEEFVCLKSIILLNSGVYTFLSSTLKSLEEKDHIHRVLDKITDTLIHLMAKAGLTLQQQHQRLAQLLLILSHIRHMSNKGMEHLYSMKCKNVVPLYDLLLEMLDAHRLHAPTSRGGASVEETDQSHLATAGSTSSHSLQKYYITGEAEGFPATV

Sequence of Protein cereblon/Estrogen receptor (Q96SW2 whole entry, one chain of several, the tested form may be a part): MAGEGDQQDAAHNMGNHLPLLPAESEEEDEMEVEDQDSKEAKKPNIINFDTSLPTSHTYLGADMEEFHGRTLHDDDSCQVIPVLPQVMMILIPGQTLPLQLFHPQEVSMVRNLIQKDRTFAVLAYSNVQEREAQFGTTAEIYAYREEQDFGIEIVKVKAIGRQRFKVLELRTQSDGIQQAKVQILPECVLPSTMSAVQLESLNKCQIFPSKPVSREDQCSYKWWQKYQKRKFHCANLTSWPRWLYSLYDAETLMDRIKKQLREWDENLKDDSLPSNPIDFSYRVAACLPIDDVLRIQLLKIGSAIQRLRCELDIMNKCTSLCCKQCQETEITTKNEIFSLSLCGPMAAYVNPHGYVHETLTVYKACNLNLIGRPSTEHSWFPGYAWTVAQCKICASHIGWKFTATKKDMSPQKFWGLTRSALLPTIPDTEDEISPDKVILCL

SMILES | pIC50 [1] | pIC50 (Estrogen receptor)
COc1cc(N2CCN(CCC3CCN(c4ncc([C@@H]5c6[nH]c7ccccc7c6C[C@@H](C)N5CC(C)(C)F)cn4)CC3)CC2)cc2c1C(=O)N(C1CCC(=O)NC1=O)C2 (stereo partly drawn) | 9.40 | –
C[C@@H]1Cc2c([nH]c3ccccc23)[C@@H](c2cnc(N3CCC4(CC3)CC(CN3CC5(CCN(c6ccc7c(c6)CN(C6CCC(=O)NC6=O)C7=O)CC5)C3)C4)nc2)N1CC(C)(C)F (stereo partly drawn) | 9.40 | 8.72
C[C@@H]1Cc2c([nH]c3ccccc23)[C@@H](c2cnc(N3CCC(CN4CCN(CC5CCN(c6ccc7c(c6)CN(C6CCC(=O)NC6=O)C7=O)CC5)CC4)CC3)nc2)N1CC(C)(C)F (stereo partly drawn) | 9.22 | –
C[C@@H]1Cc2c([nH]c3ccccc23)[C@@H](c2cnc(N3CCC4(CCN(CCC5CCN(c6ccc7c(c6)CN(C6CCC(=O)NC6=O)C7=O)CC5)CC4)CC3)nc2)N1CC(C)(C)F (stereo partly drawn) | 9.10 | –
C[C@@H]1Cc2c([nH]c3ccccc23)[C@@H](c2cnc(OC3CCC4(CC3)CCN(CC3CCN(c5ccc6c(c5)CN(C5CCC(=O)NC5=O)C6=O)CC3)CC4)nc2)N1CC(C)(C)F (stereo partly drawn) | 9.40 | –
C[C@@H]1Cc2c([nH]c3ccccc23)[C@@H](c2cnc(N3CCC(CCN4CCC5(CC4)CCN(c4ccc6c(c4)CN(C4CCC(=O)NC4=O)C6=O)CC5)CC3)nc2)N1CC(C)(C)F (stereo partly drawn) | 9.40 | –
C[C@@H]1Cc2c([nH]c3ccccc23)[C@@H](c2cnc(N3CCC(CCN4CCN(c5ccc6c(c5)CN(C5CCC(=O)NC5=O)C6=O)CC4)CC3)nc2)N1CC(C)(C)F (stereo partly drawn) | 9.30 | –
C[C@@H]1Cc2c([nH]c3ccccc23)[C@@H](c2cnc(N3CCC(OCCN4CCN(c5ccc6c(c5)CN(C5CCC(=O)NC5=O)C6=O)CC4)CC3)nc2)N1CC(C)(C)F (stereo partly drawn) | 9.30 | –
COc1cc(N2CCN(CC3CCN(c4ncc([C@@H]5c6[nH]c7ccccc7c6C[C@@H](C)N5CC(C)(C)F)cn4)CC3)CC2)cc2c1C(=O)N(C1CCC(=O)NC1=O)C2 (stereo partly drawn) | 9.15 | –
C[C@@H]1Cc2c([nH]c3ccccc23)[C@@H](c2c(F)cc(OCCCCCN3CCN(c4ccc5c(c4)CN(C4CCC(=O)NC4=O)C5=O)CC3)cc2F)N1CC(C)(C)F (stereo partly drawn) | 9.22 | –
C[C@@H]1Cc2c([nH]c3ccccc23)[C@@H](c2cnc(N3CCC(CCN4CCOC5(CC4)CCN(c4ccc6c(c4)CN(C4CCC(=O)NC4=O)C6=O)CC5)CC3)nc2)N1CC(C)(C)F (stereo partly drawn) | 9.30 | –
C[C@@H]1Cc2c([nH]c3ccccc23)[C@@H](c2cnc(N3CCC(CN4CCOC5(CC4)CCN(c4ccc6c(c4)CN(C4CCC(=O)NC4=O)C6=O)CC5)CC3)nc2)N1CC(C)(C)F (stereo partly drawn) | 9.40 | –
